Reference: patent publication US11299641B2, “Curable liquid composition, composition-accommodating container, liquid composition discharging device, cured material, and method of manufacturing cured material” (RICOH COMPANY, LTD., priority 2018, dated 2022)

Tests used:
[1] = test system: female mice; assay: skin sensitization test in accordance with the Local Lymph Node Assay (LLNA) method, SI value; type: in vivo; details: test substance 50.0 w/v percent in acetone/olive oil 4 to 1, 25 μL per ear once a day for three days, BrdU intake
Method: The SI value was measured in the manner described below according to the skin sensitization test in accordance with the Local Lymph Node Assay (LLNA) method.
α-hexylcinnamaldehyde (HCA; product of FUJIFILM Wako Pure Chemical Corporation) was used as positive control material.
A liquid mixture containing acetone (product of FUJIFILM Wako Pure Chemical Corporation) and olive oil (product of Fudimi Pharmaceutical Co., Ltd.) in a volume ratio of 4 to 1 was used as medium.
For each of the test substances, the positive control, or the medium control, female mice were acclimated for 8 days including 6-day quarantine. No abnormalities were found in all the mice during the quarantine/acclimation period.
Based on the body weights measured two days before the initiation of sensitization, the mice were categorized into 2 groups (4 mice/group) by the body weight stratified random sampling method so that the body weight of each individual was within −20 to +20 percent of the average body weight of all the individuals. Each of the tested animals was 8 to 9 weeks old at the time of the initiation of sensitization. The individuals not classified into the groups were excluded from the test.
The group compositions of the medium control group and positive control group used for the measurement of the SI value are shown in Table 1.
The test substance was weighed in a measuring flask, and the volume of the test substance was adjusted to 1 mL while adding the medium. The thus-prepared test substance solution was placed in a light-shielded airtight container (made of glass).
The preparation solution and the medium of each test substance and positive control substance were applied to both ears of each animal in an amount of 25 μL for each. A micropipettor was used for application. The tested animals were subjected to this treatment once a day for three consecutive days.
About 48 hours after the final sensitization, the BrdU preparation solution (0.5 mL) was intraperitoneally administered once to each of the tested animals.
All the animals used for the test were observed once or more times a day from the day of the initiation of sensitization to the day of the removal of the auricular lymph node (i.e., the day when the animals were transferred from the animal room). […] Measurement of Body Weights The body weight of each of the tested animals was measured on the day of the initiation of sensitization and on the day of the removal of the auricular lymph node (i.e., the day when the animals were transferred from the animal room). Also, the weight average and the standard error for each group were calculated. Removal of Auricular Lymph Node and Measurement of Weight Thereof About 24 hours after the administration of BrdU, the tested animals were allowed to undergo euthanasia, and their auricular lymph nodes were sampled. The surrounding tissue of each auricular lymph node was removed, and the auricular lymph nodes from both the auricles were collectively weighed. Also, the weight average and the standard error of the auricular lymph nodes for each group were calculated. After the weight measurement, the auricular lymph nodes of each individual were stored in a frozen state using a BIO MEDICAL FREEZER set to −20 degrees C. Measurement of BrdU Intake After returning the auricular lymph nodes to room temperature, the auricular lymph nodes were mashed with the gradual addition of physiological saline, and suspended therein. The thus-obtained suspension was filtrated and thereafter dispensed into a 96-well microplate 3 wells by 3 wells per individual. The thus-dispensed suspensions were measured for intake of BrdU according to the ELISA method. The reagents used were a commercially available kit (Cell Proliferation ELISA, BrdU colorimetric, Cat. No. 1647229, product of Roche Diagnostics K.K.). […]

[2] = Safety Data Sheet; cited from earlier work

Row | Compound | SI value in the LLNA test [1] | skin sensitization, evaluation by SDS [2]
1 | Tricyclodecanedimethanol dimethacrylate [Example A6] | 1.3 | 
2 | C=C(C)C(=O)OCC(CO)OC(=O)C(=C)C (stereo not drawn) [Example A7, Glycerol dimethacrylate] | 1.2 | 
3 | C=CC(=O)OCCCCCCCCCCCCCCCC(C)C [Example A5, Isostearyl acrylate] | 1.4 | 
4 | C=C(C)C(=O)OCCOCCOC(=O)C(=C)C [Example A1, Diethylene glycol dimethacrylate] | 1.1 | 
5 | Polypropylene glycol diacrylate [Example A4] | 1.5 | 
6 | CC(C)(O)C(=O)c1ccc(OCCO)cc1 [Example B1, 1-[4-(2-hydroxyethoxy)-phenyl]-2-hydroxy-2-methyl-1-propane-1-one] |  | none
7 | Caprolactone-modified dipentaerythritol hexaacrylate [Example A2] |  | none
8 | C=C(C)C(=O)OCC(O)CO (stereo not drawn) [Example A8, Glycerol monomethacrylate] | 1.1 | 
9 | CCC(Cc1ccccc1)(C(=O)c1ccc(N2CCOCC2)cc1)N(C)C (stereo not drawn) [Example B3, 2-(dimethylamino)-1-(4-morpholinophenyl)-2-benzyl-1-butanone] | 10 | 
